# Data from patent US8981149B2, “Compounds modulating the hedgehog protein signaling pathway, marked forms thereof, and applications” (Centre National De La Recherche Scientifique, priority 2011, dated 2015).
# Like-named read-outs stand apart in the source and are kept apart here.
# Columns and labels:
# [1] = biological target: T1, human Smoothened receptor (Homo sapiens, UniProt Q99835); assay: Saturation of binding of 3H-(7d) to membranes of HEK-hSmo cells; details: read-out: Kd of specific binding
# T1 construct: expressed in transfected cells
# T1 sequence (Q99835 28-787): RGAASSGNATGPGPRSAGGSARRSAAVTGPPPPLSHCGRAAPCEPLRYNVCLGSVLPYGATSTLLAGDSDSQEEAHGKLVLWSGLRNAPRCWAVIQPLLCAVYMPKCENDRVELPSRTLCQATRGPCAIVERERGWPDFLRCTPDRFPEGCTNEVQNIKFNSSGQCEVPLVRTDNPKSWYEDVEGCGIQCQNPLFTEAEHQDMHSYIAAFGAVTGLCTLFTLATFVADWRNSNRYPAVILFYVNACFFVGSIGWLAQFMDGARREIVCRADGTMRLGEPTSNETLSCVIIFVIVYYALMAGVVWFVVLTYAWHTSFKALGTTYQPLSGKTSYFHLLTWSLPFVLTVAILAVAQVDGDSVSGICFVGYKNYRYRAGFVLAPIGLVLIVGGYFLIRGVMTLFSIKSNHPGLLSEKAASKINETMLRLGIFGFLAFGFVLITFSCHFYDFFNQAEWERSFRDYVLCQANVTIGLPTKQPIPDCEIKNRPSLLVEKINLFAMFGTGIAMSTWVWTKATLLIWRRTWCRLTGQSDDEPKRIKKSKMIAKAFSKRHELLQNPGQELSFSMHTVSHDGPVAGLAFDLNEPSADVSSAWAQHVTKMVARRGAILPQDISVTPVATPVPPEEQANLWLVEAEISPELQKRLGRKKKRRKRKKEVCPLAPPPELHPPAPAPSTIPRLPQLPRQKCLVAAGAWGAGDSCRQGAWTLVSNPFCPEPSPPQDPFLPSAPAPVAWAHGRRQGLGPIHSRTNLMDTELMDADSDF
# Protocol: The binding test is carried out on membranes enriched with Smoothened receptor. Cells of the HEK-hSmo line were used for preparing these membranes. The cells are washed and recovered in iced PBS. After centrifugation at 100 g for 7 minutes at 4° C., the pellet is taken up in 10 times its volume of an iced buffer A (50 mM HEPES, pH 7.4, 1 mM EDTA) with addition of 10 μl of a cocktail of protease inhibitors (PEAK, Sigma) per ml of buffer, then it is homogenized using a Polytron grinding mill. After centrifugation at 500 g for 30 minutes at 4° C., which makes it possible to remove the nuclei from the cells, the supernatant is centrifuged again at 48 000 g for 45 min at 4° C. The pellet is taken up in 2 ml of buffer A with PEAK added, then the suspension is homogenized using a glass conical grinding mill and is passed through a 23 G needle. Finally, aliquots are placed in Eppendorf tubes and stored at −80° C. The concentration of total protein in the preparation is determined by Lowry's method using BSA for preparing the standard range. This concentration is 10.9 mg/ml.
# The membranes are resuspended in a buffer (50 mM HEPES and 3 mM MgCl2) containing 0.2% of BSA. The tests of binding of ^3H-(7d) are carried out in polypropylene tubes. […] The radioactivity retained on the filter is measured in the presence of 3 ml of scintillating agent in a liquid scintillation counter. […]
# [2] = tested on: PCGs of rat cerebellum; assay: Proliferation of granule cell precursors (PCGs) of rat cerebellum induced by SAG, 3H-thymidine incorporation; assay type: cell-based; details: for IC50: proliferation induced by SAG (0.01 μM), 3H-thymidine incorporation, read-out: IC50 ± SEM, PCGs of rat cerebellum (3)
# Protocol: The granule cell precursors (GCP) are isolated from cerebellums of rats (IFFA-CREDO, France), 8 days after birth (P8). The cerebellums are taken, cut into small pieces, placed in Krebs-Ringer buffer (120 mM NaCl, 5 mM KCl, 1 mM KH2PO4, 25 mM NaHCO3, 15 mM glucose, 0.04 mM phenol red) and incubated for 15 minutes at room temperature in a dissociation buffer composed of Krebs-Ringer with addition of 250 mg/ml of trypsin (Sigma, France). Enzymatic dissociation is stopped by adding an equal volume of Krebs-Ringer buffer containing 250 mg/ml of a trypsin inhibitor and 80 mg/ml of DNase (Sigma, France). The tissue is centrifuged at 100 g for 10 seconds and the pellet obtained is resuspended and triturated using Pasteur pipettes of decreasing diameter to obtain a suspension of isolated cells. This suspension is centrifuged at 200 g for 5 minutes and the pellet obtained is resuspended in Neurobasal medium supplemented with 1 mM of pyruvate, 2 mM L-glutamine, penicillin/streptomycin and 1% of supplement N2, 60 mg/ml N-acetyl cysteine and […] of bovine serum albumin (BSA, Sigma, France).
# The cerebellar GCPs obtained are transferred to 96-well plates treated beforehand with poly-D-lysine at a density of 2.10^5 cells/well. SAG in the presence or absence of the other test compounds is added immediately. 12 hours before the end of culture, tritiated thymidine (^3H-thymidine) is added. The cells are aspirated and recovered on a glass fiber filter (GF/C) using an automated cell collector (Brandel, USA). The amount of radioactivity incorporated by the cells was quantified in the presence of a scintillating agent in a liquid scintillation counter (Wallac, USA).
# The cerebellar PCGs proliferate in response to activation of the Shh signalling pathway, a response that can be inhibited by the Smo antagonists (Rohatgi et al., 2009, Proc. Natl. Acad. Sci. USA 106: 3196-201). We therefore analyzed the capacity of compound (7d) for inhibiting the proliferation of the PCGs of rat cerebellum in primary culture by measuring the incorporation of tritiated thymidine, a marker of DNA newly synthesized during the proliferation process.
# [3] = tested on: C3H10T1/2 cells; assay: Differentiation of C3H10T1/2 cells induced by SAG, alkaline phosphatase (AP) activity; assay type: cell-based, mouse; details: Mus musculus, C3H 10T1/2
# Protocol: The test compounds of formula (I) were dissolved in dimethylsulfoxide up to a concentration of 10 mM, then stored at a temperature of −20° C. until used.
# The line of C3H10T1/2 pluripotent fibroblast cells (ATCC) was cultured in the conditions recommended by the ATCC. These cells were activated using 0.1 μM of SAG according to the methods described by Chen et al., Proc. Natl. Acad. Sci. USA, 2002, 99, 14071 and Frank-Kamenetsky et al., J. Biol., 2002, 1, 10.
# Activation by SAG causes differentiation of the cell line and allows it to express alkaline phosphatase (AP). It was thus possible to measure the activity of the Hedgehog protein signalling pathway via measurement of the alkaline phosphatase (AP) activity.
# The C3H10T1/2 cells were seeded on 96-well plates at a density of 5.10^3 cells per well, 24 hours before adding the test compounds at a concentration varying from 1 nM to 30 μM and in the presence of 0.1 μM of SAG, using DMEM (Dulbecco's Modified Eagle's Medium) with 10% fetal calf serum as culture medium. The tests were carried out in quadruplicate. The plates were then incubated for 5 to 6 days at a temperature of 37° C. under 5% CO2 atmosphere. The cells were then washed in cold phosphate buffer (“Phosphate Buffer Serum”: PBS), then lysed by sonication at 4° C. in 50 μL of a solution containing 0.9% of NaCl and 0.2% of Triton X-100.
# Measurement of the alkaline phosphatase (AP) activity in the lysates thus obtained was then performed according to the method described by Pepinsky et al. (J. Biol. Chem., 1998, 273, 14037). After adding 100 μL of reaction buffer (200 mM Tris-HCl; pH 10.5; 0.4 M of 2-amino-2-methylpropanol and 8 mM of MgCl2) and 50 μL of substrate (4 mM of p-nitrophenyl disodium phosphate), the lysates were incubated at 37° C. for 30-60 min, then the optical density was read at a wavelength of 415 nm.
structure (smiles),measurement,setting,value
"COc1cc(C(=O)NC(=N)Nc2ccc(C)c(NC(=O)c3ccc(CCc4ccccc4)cc3)c2)cc(OC)c1OC.Cl [Compound 7d, 3,4,5-trimethoxy-N—(N-(4-methyl-3-(4-phenethylbenzamido)phenyl)carbamimidoyl)benzamide hydrochloride]",Kd,[1],0.3 nM
same,IC50,[2]; Rattus norvegicus,0.45 nM
same,Type of antagonism on proliferation of PCGs,[2]; induced by SAG (0.01 μM),complete antagonist
same,IC50,[2]; hydrochloride,0.4 ± 0.1 nM
same,IC50,"[3]; AP activity, differentiation induced by SAG (0.1 μM), read-out: IC50 ± SEM, C3H10T1/2 cells (2)",6 ± 1 nM
same,IC50,"[3]; SAG 0.1 μM, Mean ± SEM, n ≧ 3, read-out: IC50, differentiation of C3H10T1/2 cells",6 ± 1 nM
same,IC50,"[3]; after induction by SAG at 0.1 μM, read-out: IC50, inhibition of alkaline phosphatase (AP) activity, differentiation of C3H10T1/2 cells",6 ± 1 nM
